Patent publication US20250100973A1, “DIIMIDE DERIVATIVE, AND PREPARATION METHOD THEREFOR AND USE THEREOF” (XIANGBEI WELMAN PHARMACEUTICAL CO., LTD., priority 2022, published 2025)

The compounds below were run on HT-29 human colon cancer cells (assay: In vitro antiproliferative activity (resazurin, 96 h)). Settings: Homo sapiens; HT-29, 96 h culture, resazurin fluorescence; read-out: IC50 grade of inhibitory effect on tumor cells, HT-29.
Type: cell-based
Method: (§1) Objective: to test the antiproliferative activity of the compound in the present disclosure against a variety of tumor cells. […] Amonafide and lomustine were commercially available. Test cells: human colon cancer cells (HT-29, COLO 205), human lung cancer cells (NCI-H460, A549), and human leukemia cells (HL-60, U-937). Test methods: each tumor cell was processed separately. Cells were cultured in a culture medium at 37° C. for 24 h for later use. The cells in the exponential growth phase were harvested, treated with trypsin to prepare a cell suspension, the cell suspension was centrifuged, and then the cell pellet was resuspended in a small amount of fresh culture medium as a stock cell solution. A 96-well plate was taken, and blank control groups, cell control groups and compound treatment groups were set up. […] The remaining wells were filled with 200 μL of 10% PBS. The plate was placed in an incubator overnight. 100 μL of each test compound at different dilution concentrations was added into each well of the compound treatment groups, 10 and the dilution concentrations of the compound were as shown in Table 2. […] After adding the drug, the plate was placed in an incubator to be cultured for 96 hours, 22 μL of resazurin sodium solution (Alarm blue, SIGMA R7017) was added into each well, and the plate was returned to the incubator to be cultured for another 4 h. The plate was shaken for 10 s after being taken out. A fluorescence value of each well was tested at 530/590 nm. The above operations were repeated for three times. The IC50 value of each test compound was calculated with the Prism7 software. The IC50 was divided into different grades according to value, that is: […]

Compound | IC50
CCN(CC)C(=O)N(C)CCNCN1C(=O)c2cccc3c(OC)ccc(c23)C1=O [Compound I-06] | 1 to 5 µM
CCN(CCNC(=O)N(C)CC)CCN1C(=O)c2cccc3cc([N+](=O)[O-])cc(c23)C1=O [Compound I-04] | 1 to 5 µM
CC(C)(C)OC(=O)NCCCN1CCN(CCCN2C(=O)c3cccc4cc([N+](=O)[O-])cc(c34)C2=O)CC1 [Cob280] | 5 to 10 µM
CN(C)C(=O)N(C)CCCNCN1C(=O)c2cccc3cccc(c23)C1=O [Compound I-07] | 5 to 10 µM
CC(C)(C)OC(=O)NCCCNCCCN1C(=O)c2cccc3cc([N+](=O)[O-])cc(c23)C1=O [Cob281] | 5 to 10 µM
O=NN(CCCl)C(=O)NC1CCCCC1 [Lomustine] | 51 to 100 µM

What follows are compounds tested on NCI-H460 human lung cancer cells in the same assay as above. Settings: Homo sapiens; NCI-H460, 96 h culture, resazurin fluorescence; read-out: IC50 grade of inhibitory effect on tumor cells, NCI-H460.
Type: cell-based
Method: as §1

Compound | IC50
CCN(CC)C(=O)N(C)CCNCN1C(=O)c2cccc3c(OC)ccc(c23)C1=O [Compound I-06] | 5 to 10 µM
CCN(CCNC(=O)N(C)CC)CCN1C(=O)c2cccc3cc([N+](=O)[O-])cc(c23)C1=O [Compound I-04] | 1 to 5 µM
CC(C)(C)OC(=O)NCCCN1CCN(CCCN2C(=O)c3cccc4cc([N+](=O)[O-])cc(c34)C2=O)CC1 [Cob280] | 11 to 20 µM
CN(C)C(=O)N(C)CCCNCN1C(=O)c2cccc3cccc(c23)C1=O [Compound I-07] | 1 to 5 µM
CC(C)(C)OC(=O)NCCCNCCCN1C(=O)c2cccc3cc([N+](=O)[O-])cc(c23)C1=O [Cob281] | 11 to 20 µM
O=NN(CCCl)C(=O)NC1CCCCC1 [Lomustine] | 51 to 100 µM

The compounds below were run on COLO 205 human colon cancer cells in the same assay as above. Settings: Homo sapiens; COLO 205, 96 h culture, resazurin fluorescence; read-out: IC50 grade of inhibitory effect on tumor cells, COLO 205.
Type: cell-based
Method: as §1

Compound | IC50
CCN(CC)C(=O)N(C)CCNCN1C(=O)c2cccc3c(OC)ccc(c23)C1=O [Compound I-06] | 5 to 10 µM
CCN(CCNC(=O)N(C)CC)CCN1C(=O)c2cccc3cc([N+](=O)[O-])cc(c23)C1=O [Compound I-04] | 5 to 10 µM
CC(C)(C)OC(=O)NCCCN1CCN(CCCN2C(=O)c3cccc4cc([N+](=O)[O-])cc(c34)C2=O)CC1 [Cob280] | 11 to 20 µM
CN(C)C(=O)N(C)CCCNCN1C(=O)c2cccc3cccc(c23)C1=O [Compound I-07] | 1 to 5 µM
CC(C)(C)OC(=O)NCCCNCCCN1C(=O)c2cccc3cc([N+](=O)[O-])cc(c23)C1=O [Cob281] | 11 to 20 µM
O=NN(CCCl)C(=O)NC1CCCCC1 [Lomustine] | > 100 µM

These compounds were tested on U-937 human leukemia cells in the same assay as above. Settings: Homo sapiens; U-937, 96 h culture, resazurin fluorescence; read-out: IC50 grade of inhibitory effect on tumor cells, U-937.
Type: cell-based
Method: as §1

Compound | IC50
CCN(CC)C(=O)N(C)CCNCN1C(=O)c2cccc3c(OC)ccc(c23)C1=O [Compound I-06] | 1 to 5 µM
CCN(CCNC(=O)N(C)CC)CCN1C(=O)c2cccc3cc([N+](=O)[O-])cc(c23)C1=O [Compound I-04] | 1 to 5 µM
CC(C)(C)OC(=O)NCCCN1CCN(CCCN2C(=O)c3cccc4cc([N+](=O)[O-])cc(c34)C2=O)CC1 [Cob280] | 5 to 10 µM
CN(C)C(=O)N(C)CCCNCN1C(=O)c2cccc3cccc(c23)C1=O [Compound I-07] | 5 to 10 µM
CC(C)(C)OC(=O)NCCCNCCCN1C(=O)c2cccc3cc([N+](=O)[O-])cc(c23)C1=O [Cob281] | 5 to 10 µM
O=NN(CCCl)C(=O)NC1CCCCC1 [Lomustine] | 11 to 20 µM

The compounds below were run on HL-60 human leukemia cells in the same assay as above. Settings: Homo sapiens; HL-60, 96 h culture, resazurin fluorescence; read-out: IC50 grade of inhibitory effect on tumor cells, HL-60.
Type: cell-based
Method: as §1

Compound | IC50
CCN(CC)C(=O)N(C)CCNCN1C(=O)c2cccc3c(OC)ccc(c23)C1=O [Compound I-06] | 1 to 5 µM
CCN(CCNC(=O)N(C)CC)CCN1C(=O)c2cccc3cc([N+](=O)[O-])cc(c23)C1=O [Compound I-04] | 1 to 5 µM
CC(C)(C)OC(=O)NCCCN1CCN(CCCN2C(=O)c3cccc4cc([N+](=O)[O-])cc(c34)C2=O)CC1 [Cob280] | 5 to 10 µM
CN(C)C(=O)N(C)CCCNCN1C(=O)c2cccc3cccc(c23)C1=O [Compound I-07] | 1 to 5 µM
CC(C)(C)OC(=O)NCCCNCCCN1C(=O)c2cccc3cc([N+](=O)[O-])cc(c23)C1=O [Cob281] | 5 to 10 µM
O=NN(CCCl)C(=O)NC1CCCCC1 [Lomustine] | 21 to 50 µM

Each compound was assayed on A549 human lung cancer cells in the same assay as above. Settings: Homo sapiens; A549, 96 h culture, resazurin fluorescence; read-out: IC50 grade of inhibitory effect on tumor cells, A549.
Type: cell-based
Method: as §1

Compound | IC50
CCN(CC)C(=O)N(C)CCNCN1C(=O)c2cccc3c(OC)ccc(c23)C1=O [Compound I-06] | 1 to 5 µM
CCN(CCNC(=O)N(C)CC)CCN1C(=O)c2cccc3cc([N+](=O)[O-])cc(c23)C1=O [Compound I-04] | 1 to 5 µM
CC(C)(C)OC(=O)NCCCN1CCN(CCCN2C(=O)c3cccc4cc([N+](=O)[O-])cc(c34)C2=O)CC1 [Cob280] | 11 to 20 µM
CN(C)C(=O)N(C)CCCNCN1C(=O)c2cccc3cccc(c23)C1=O [Compound I-07] | 5 to 10 µM
CC(C)(C)OC(=O)NCCCNCCCN1C(=O)c2cccc3cc([N+](=O)[O-])cc(c23)C1=O [Cob281] | 5 to 10 µM
O=NN(CCCl)C(=O)NC1CCCCC1 [Lomustine] | > 100 µM
